Experimental data reported in BindingDB's records for doi:10.1016/j.bioorg.2015.10.007 (University of Thessaly, 2015).

How the values were obtained:
[1] = biological target: T1, Non-secretory ribonuclease (Homo sapiens, UniProt P10153); test: Ribonuclease Activity Assay; conditions: 30 °C
T1 sequence (P10153 whole entry): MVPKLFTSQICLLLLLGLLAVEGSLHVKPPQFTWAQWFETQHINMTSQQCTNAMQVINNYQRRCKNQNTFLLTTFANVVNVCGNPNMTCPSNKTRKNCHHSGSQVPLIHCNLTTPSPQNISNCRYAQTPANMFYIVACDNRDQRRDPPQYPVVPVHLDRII
Procedure: (§1) The Ribonuclease Activity assay used was adapted from the procedure described by Anfinsen et al. and Slifman et al. Determination of ribonuclease activity of RNase A and EDN proceeded as follows: yeast tRNA (Sigma-Aldrich) was solubilized in 50 mM sodium phosphate, pH = 7.4, at a concentration of 60 uM. Various tRNA concentrations were used: 2 uM, 3 uM, 4 uM, 5 uM and 6 uM. The final volume of the reaction was 300 ul. tRNA solutions were incubated at 30 C for 10 min. 10 nM of enzyme final concentration from a 0.6 uM stock solution added to the reactionmixture. The reaction was stopped one minute and five minutes later in the case of RNase A and EDN respectively, by the addition of 300 ul of fresh ice-cold solution of 40 mM lanthanum nitrate, 6% v/v perchloric acid. Stopped reactions were maintained on ice for 15 min, and insoluble tRNA was removed by centrifugation at 4 C for 15 min at 14.500 rpm on a bench centrifuge. The amountof cleaved tRNA was determined from the ultraviolet absorbance at 260 nm (A260) of the supernatant fraction.

Ribonuclease pancreatic = Ribonuclease pancreatic (Bos taurus, UniProt P61823); test: Ribonuclease Activity Assay; conditions: 30 °C
Ribonuclease pancreatic, sequence (P61823 whole entry): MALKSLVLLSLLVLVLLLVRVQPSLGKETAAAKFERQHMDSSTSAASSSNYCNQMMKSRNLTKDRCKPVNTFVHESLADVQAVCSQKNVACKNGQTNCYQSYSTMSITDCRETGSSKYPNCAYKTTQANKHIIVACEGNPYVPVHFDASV
Procedure: as §1

SMILES	IC50 [1] [µM]	Ki [1] [µM]	Ki (Ribonuclease pancreatic) [µM]
Cc1cn(Cc2cn([C@@H]3C(O)[C@H](N4C=NC5C(N)=NC=NC54)O[C@@H]3CO)nn2)c(=O)[nH]c1=O (stereo partly drawn) [9-[3'-[4-[(Thymine-1-yl)methyl]-1,2,3-triazol-1-yl]-b-D-ribofuranosyl]adenine (12b)]	559	365	68.8
O=c1[nH]c(=O)n(Cc2cn([C@@H]3O[C@H](CO)[C@H](O)C3O)nn2)cc1Cl (stereo partly drawn) [5-chloro-1-({1-[(2R,5R)-3,4-dihydroxy-5-(hydroxymethyl)oxolan-2-yl]-1H-1,2,3-triazol-4-yl}methyl)-1,2,3,4-tetrahydropyrimidine-2,4-dione (II)]	535	454	
O=c1[nH]c(=O)n(Cc2cn([C@@H]3O[C@H](CO)[C@H](O)C3O)nn2)cc1F (stereo partly drawn) [1-({1-[(2R,5R)-3,4-dihydroxy-5-(hydroxymethyl)oxolan-2-yl]-1H-1,2,3-triazol-4-yl}methyl)-5-fluoro-1,2,3,4-tetrahydropyrimidine-2,4-dione (III)]	63.7	44.2	
Cc1cn(Cc2cn([C@@H]3C(O)[C@H](n4cnc5c(NC(=O)c6ccccc6)ncnc54)O[C@@H]3CO)nn2)c(=O)[nH]c1=O (stereo partly drawn) [9-[3'-[4-[(Thymine-1-yl)methyl]-1,2,3-triazol-1-yl]-b-D-ribofuranosyl]N6-benzoyladenine (11b)]	379	247	150
NC1=NC=NC2C1N=CN2[C@@H]1O[C@H](CO)[C@H](n2cc(Cn3ccc(N)nc3=O)nn2)C1O (stereo partly drawn) [9-[3'-[4-[(Cytosine-1-yl)methyl]-1,2,3-triazol-1-yl]-b-D-ribofuranosyl]adenine (11c)]	88.6	57.8	98.5
Nc1ncnc2c1ncn2Cc1cn([C@@H]2C(O)[C@H](n3ccc(=O)[nH]c3=O)O[C@@H]2CO)nn1 (stereo partly drawn) [1-[3'-[4-[(Adenine-9-yl)methyl]-1,2,3-triazol-1-yl]-b-D-ribofuranosyl]uracil (5a)]			159
Nc1ncnc2c1ncn2Cc1cn([C@@H]2C(O)[C@H](n3cc(F)c(=O)[nH]c3=O)O[C@@H]2CO)nn1 (stereo partly drawn) [1-[3'-[4-[(Adenine-9-yl)methyl]-1,2,3-triazol-1-yl]-b-D-ribofuranosyl]5-fluorouracil (5c)]			265
O=c1[nH]c(=O)n([C@@H]2O[C@H](CO)[C@H](O)C2O)cc1Cl (stereo partly drawn) [5-chloro-1-[(2R,5R)-3,4-dihydroxy-5-(hydroxymethyl)oxolan-2-yl]-1,2,3,4-tetrahydropyrimidine-2,4-dione (V)]	1460	1080	
O=c1ccn(Cc2cn([C@@H]3O[C@H](CO)[C@H](O)C3O)nn2)c(=O)[nH]1 (stereo partly drawn) [1-({1-[(2R,5R)-3,4-dihydroxy-5-(hydroxymethyl)oxolan-2-yl]-1H-1,2,3-triazol-4-yl}methyl)-1,2,3,4-tetrahydropyrimidine-2,4-dione (I)]	179	116	
O=C(Nc1ncnc2c1ncn2[C@@H]1O[C@H](CO)[C@H](n2cc(Cn3ccc(=O)[nH]c3=O)nn2)C1O)c1ccccc1 (stereo partly drawn) [9-[3'-[4-[(Uracil-1-yl)methyl]-1,2,3-triazol-1-yl]-b-D-ribofuranosyl]N6-benzoyladenine (11a)]	409	267	55.5
Cc1cn([C@@H]2O[C@H](CO)[C@H](O)C2O)c(=O)[nH]c1=O (stereo partly drawn) [1-[(2R,5R)-3,4-dihydroxy-5-(hydroxymethyl)oxolan-2-yl]-5-methyl-1,2,3,4-tetrahydropyrimidine-2,4-dione (IV)]	33.1	26.1	
O=c1[nH]c(=O)n([C@@H]2O[C@H](CO)[C@H](O)C2O)cc1F (stereo partly drawn) [1-[(2R,5R)-3,4-dihydroxy-5-(hydroxymethyl)oxolan-2-yl]-5-fluoro-1,2,3,4-tetrahydropyrimidine-2,4-dione (VI)]	282	208	
NC1=NC=NC2C1N=CN2[C@@H]1O[C@H](CO)[C@H](n2cc(Cn3ccc(=O)[nH]c3=O)nn2)C1O (stereo partly drawn) [9-[3'-[4-[(Uracil-1-yl)methyl]-1,2,3-triazol-1-yl]-b-D-ribofuranosyl]adenine (12a)]	652	426	106
